From paper PMC9867151, “Anti-HIV Potential of Beesioside I Derivatives as Maturation Inhibitors: Synthesis, 3D-QSAR, Molecular Docking and Molecular Dynamics Simulations” (International Journal of Molecular Sciences, 2023)
Where a name gives a salt, the structure may show the parent alone. Read-outs that look alike come from different tables or passages of the source.

Key:
[1] = tested on: HIV-1NL4-3 Nanoluc-sec virus; assay: Anti-HIV assay: multicycle viral replication in MT4 cells, Nano-Glo luciferase readout; assay type: cell-based
Description: (§1) All of the synthetic derivatives were evaluated for anti-HIV activity by determining the inhibitory effects on virus replication in MT4 lymphocytes infected by HIV-1NL4-3 Nanoluc-sec virus. Cytotoxic activity tests were also carried out on MT4 cells.
In vitro activity was determined by a previously described HIV-1 infection assay. Briefly, a 96-well microtiter plate was used to set up the screening assay using MT4 cells infected by HIV-1NL4-3 Nanoluc-sec virus in the presence of various concentrations of derivatives. The viral replication thus can be monitored by measuring the luciferase activity using the Promega Nano-Glo Luciferase Assay System.

[2] = CellTiter-Glo Luminescent Cytotoxicity Assay; assay type: cell-based; settings: human, MT-4 cells (MT4 lymphocytes)
Description: as §1
(§2) The cytotoxicity of the synthesized derivatives was determined using the CellTiter-Glo® Luminescent Cytotoxicity Assay (Promega, Madison, WI, USA). MT-4 cells were cultured in the presence of various concentrations of the compounds for 3 days. The percentage of viable cells was measured by following the protocol provided by the manufacturer. The CC50 was derived using the Quest Graph™ IC50 Calculator (https://www.aatbio.com/tools/ic50-calculator, accessed on 7 October 2021).

[3] = tested on: MT4 cells; assay: CellTiter-Glo Luminescent Cytotoxicity Assay; assay type: cell-based; settings: MT-4 cells, 3 days
Description: as §1, §2

[4] = tested on: HIV-1NL4-3 Nanoluc-sec virus; settings: cited from earlier work
[5] = Human immunodeficiency virus 1, MT4, read-out: PEC50, actual value converted from EC50, 3D-QSAR dataset
[6] = Human immunodeficiency virus 1, MT4, 3D-QSAR dataset, actual values, entries matching the derivatives tested in this paper (Table 1)
[7] = 3D-QSAR dataset, actual values, ref activity data reported from our laboratory

CC(=O)O[C@H]1[C@@H](OC(C)=O)[C@@]2(C)C3CCC4C(C)(C)[C@@H](OC(=O)CC(C)(C)C(=O)OCc5ccccc5)CC[C@@]45C[C@@]35CC[C@@]23CO[C@@]2(C(C)(C)O)CC[C@](C)(O2)[C@@H]13 (stereo partly drawn) (as salt: succinate) [3b, (20S,24S)-15β,16β-Diacetoxy-18,24;20,24-diepoxy-9,19-cyclolanostane-3β,25-diol-3-O-4′-(benzyloxy) carbonyl-3′,3′-dimethylsuccinate]
melting point: 188 to 190 °C

CC(C)(CC(=O)O[C@H]1CC[C@]23C[C@]24CC[C@]25CO[C@@]6(C(C)(C)O)CC[C@](C)(O6)[C@H]2[C@@H](O)[C@@H](O)[C@@]5(C)C4CCC3C1(C)C)C(=O)O (stereo partly drawn) [3 ^a]
EC50 [1, 5]: 0.12 µM

CC(=O)O[C@H]1[C@@H](OC(C)=O)[C@@]2(C)C3CCC4C(C)(C)[C@@H](OC(=O)CC(C)(C)C(=O)OCc5ccccc5)CC[C@@]45C[C@@]35CC[C@@]23CO[C@@]2(C(C)(C)O)CC[C@](C)(O2)[C@@H]13 (stereo partly drawn) [3b, (20S,24S)-15β,16β-Diacetoxy-18,24;20,24-diepoxy-9,19-cyclolanostane-3β,25-diol-3-O-4′-(benzyloxy) carbonyl-3′,3′-dimethylsuccinate]
CC50 at 3 days [2]: > 20 µM | EC50 ([1]; Human immunodeficiency virus 1, NL43, MT4, read-out: EC50 (μM) NL4-3, MT4 cells infected by HIV-1NL4-3 Nanoluc-sec virus, mean +/− SD of 3 tests): 0.28 µM

Cc1cn([C@H]2C[C@H](N=[N+]=[N-])[C@@H](CO)O2)c(=O)[nH]c1=O [AZT, reference compound]
CC50 [3]: > 0.3 µM | EC50 ([1]; MT4 cells infected by HIV-1NL4-3 Nanoluc-sec virus, mean +/− SD of 3 tests, read-out: EC50 (μM) NL4-3): 0.024 ± 0.0045 µM

CC(=O)OC1C2C3(C)CCC(C(C)(C)O)(OCC24CCC25CC26CCC(OC(=O)CC(C)(C)C(=O)O)C(C)(C)C6CCC5C4(C)C1OC(C)=O)O3 [DSC, (20S,24S)-15ꞵ,16ꞵ-diacetoxy-18,24; 20,24-diepoxy-9,19-cyclolanostane-3ꞵ,25-diol 3-O-3′,3′-dimethylsuccinate]
EC50 ([4]; anti-HIV, previous work): 25 nM

CC(=O)OC1C2C3(C)CCC(C(C)(C)O)(OCC24CCC25CC26CCC(OC(=O)CC(C)(C)C(=O)OCc2ccccc2)C(C)(C)C6CCC5C4(C)C1OC(C)=O)O3 (stereo not drawn) [compound 4]
EC50 [1, 6]: 0.285 µM | EC50 [1, 5]: 0.285 µM

CC(=O)OC1C2C3(C)CCC(C(C)(C)O)(OCC24CCC25CC26CCC(OC(=O)CC(C)C(=O)O)C(C)(C)C6CCC5C4(C)C1OC(C)=O)O3 (stereo not drawn) [compound 6]
EC50 [4, 7]: 1110 nM | EC50 [1, 5]: 1.11 µM

CC(C)(CC(=O)OC1CCC23CC24CCC25COC6(C(C)(C)O)CCC(C)(O6)C2C(O)C(O)C5(C)C4CCC3C1(C)C)C(=O)OCc1ccccc1 (stereo not drawn) [compound 7]
EC50 [1, 6]: 1.52 µM | EC50 [1, 5]: 1.52 µM

CC(=O)OC1C2C3(C)CCC(C(C)(C)O)(OCC24CCC25CC26CCC(OC(=O)CC2(CC(=O)O)CCCC2)C(C)(C)C6CCC5C4(C)C1OC(C)=O)O3 (stereo not drawn) [compound 8]
EC50 [4, 7]: 1590 nM | EC50 [1, 5]: 1.59 µM

CC(C)(CC(=O)OC1CCC23CC24CCC25COC6(C(C)(C)O)CCC(C)(O6)C2C(O)C(O)C5(C)C4CCC3C1(C)C)C(=O)O (stereo not drawn) [compound 9]
EC50 [1, 6]: 1.79 µM | EC50 [1, 5]: 1.79 µM

CC(=O)OC1C2C3(C)CCC(C(C)(C)O)(OCC24CCC25CC26CCC(OC2OCC(O)C(O)C2O)C(C)(C)C6CCC5C4(C)C1OC(C)=O)O3 (stereo not drawn) [compound 10]
EC50 [4, 7]: 2320 nM | EC50 [1, 5]: 2.32 µM

CC(=O)OC1C2C3(C)CCC(C(C)(C)O)(OCC24CCC25CC26CCC(OC(C)=O)C(C)(C)C6CCC5C4(C)C1OC(C)=O)O3 (stereo not drawn) [compound 11]
EC50 [4, 7]: 2440 nM | EC50 [1, 5]: 2.44 µM

CC(=O)OC1C(O)C2C3(C)CCC(C(C)(C)O)(OCC24CCC25CC26CCC(OC2OCC(O)C(O)C2O)C(C)(C)C6CCC5C14C)O3 (stereo not drawn) [compound 13]
EC50 [4, 7]: 4850 nM | EC50 [1, 5]: 4.85 µM

CC12CCC(C(C)(C)O)(OCC34CCC56CC57CCC(OC5OCC(O)C(O)C5O)C(C)(C)C7CCC6C3(C)C(O)C(O)C14)O2 (stereo not drawn) [compound 14]
EC50 [4, 7]: 7620 nM | EC50 [1, 5]: 7.62 µM

beesioside I [compound 1]
EC50 [4, 7]: 25 nM | PEC50 ([1]; actual value converted from EC50, 3D-QSAR dataset): 7.602
